From the supplement of paper PMC11451515

What was measured:
Details in all cases: 48 h
SEM cells [1] = experiment: AUC of viability dose-response curve (% viability x log10 dose units); higher = less sensitive
In short: (§1)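 Leukemia cells adapted to each medium (500 or 1000 cells/well, 1536-well plates) were exposed to library compounds in DMSO for 48 h at 37°C at 11 threefold doses, 47 μM to 0.79 nM. Luminescence by CellTiter-Glo One was normalised per plate to DMSO and cell-free wells, then fitted with a four-parameter log-logistic curve on log10 dose. Curves above full viability were scaled and quality-control failures removed before area under the curve was integrated by trapezoidal rule.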

P12-Ichikawa [2] = experiment: as above
In short: as §1

NOMO1 [3] = experiment: as above
In short: as §1

SEM cells [4] = experiment: cell viability relative to DMSO control; higher = less cytotoxic
In short: (§2)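 Viability values are per-plate percentages of DMSO wells, with background from cell-free wells. Library compounds in DMSO were pin-dosed, in an 11-point threefold series from 47 μM to 0.79 nM, onto NOMO1 or SEM (500 cells/well) or P12-Ichikawa (1000 cells/well) leukemia cells in 1536-well plates (5 μl). Those cells had been adapted for at least four passages in each medium, and CellTiter-Glo One luminescence was read after 48 h at 37°C.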

P12-Ichikawa [5] = experiment: as above
In short: as §2

NOMO1 [6] = experiment: as above
In short: as §2

Cc1cc(OCCC[S+](C)(=O)[O-])cc(C)c1-c1cccc(COc2ccc3c(c2)OC[C@H]3CC(=O)O)c1
AUC of viability dose-response curve
Details	NOMO1 [3]	P12-Ichikawa [2]	SEM cells [1]
HPLM + 10% dialyzed FBS	466	460	454
RPMI 5 mM glucose + 10% FBS	458	428	448
RPMI 5 mM glucose + 10% dialyzed FBS	434	430	445

cell viability [%]
Details	NOMO1 [6]	P12-Ichikawa [5]	SEM cells [4]
HPLM + 10% dialyzed FBS, 0.000781 µM	93.7	100	104
HPLM + 10% dialyzed FBS, 0.00234 µM	112	104	113
HPLM + 10% dialyzed FBS, 0.00702 µM	98.7	98.1	110
HPLM + 10% dialyzed FBS, 0.0211 µM	91.3	108	104
HPLM + 10% dialyzed FBS, 0.0632 µM	108	97	107
HPLM + 10% dialyzed FBS, 0.19 µM	97.8	94.8	101
HPLM + 10% dialyzed FBS, 0.569 µM	103	97.4	96.5
HPLM + 10% dialyzed FBS, 1.71 µM	89.9	93.6	99.9
HPLM + 10% dialyzed FBS, 5.12 µM	106	91.6	98.3
HPLM + 10% dialyzed FBS, 15.4 µM	92.8	94.2	112
HPLM + 10% dialyzed FBS, 46.1 µM	67.1	68.6	91.1
RPMI 5 mM glucose + 10% FBS, 0.000781 µM	96.9	105	105
RPMI 5 mM glucose + 10% FBS, 0.00234 µM	95	106	104
RPMI 5 mM glucose + 10% FBS, 0.00702 µM	99.2	110	105
RPMI 5 mM glucose + 10% FBS, 0.0211 µM	102	103	114
RPMI 5 mM glucose + 10% FBS, 0.0632 µM	92.4	101	103
RPMI 5 mM glucose + 10% FBS, 0.19 µM	99.2	100	91.8
RPMI 5 mM glucose + 10% FBS, 0.569 µM	107	98.1	106
RPMI 5 mM glucose + 10% FBS, 1.71 µM	100	84.2	98.4
RPMI 5 mM glucose + 10% FBS, 5.12 µM	98	84.9	85.7
RPMI 5 mM glucose + 10% FBS, 15.4 µM	90.6	86.8	98.6
RPMI 5 mM glucose + 10% FBS, 46.1 µM	57.3	49.3	63.1
RPMI 5 mM glucose + 10% dialyzed FBS, 0.000781 µM	99.2	93.1	97.7
RPMI 5 mM glucose + 10% dialyzed FBS, 0.00234 µM	96.7	96.2	132
RPMI 5 mM glucose + 10% dialyzed FBS, 0.00702 µM	95.9	102	109
RPMI 5 mM glucose + 10% dialyzed FBS, 0.0211 µM	98.4	98.5	118
RPMI 5 mM glucose + 10% dialyzed FBS, 0.0632 µM	96.1	96.1	95.5
RPMI 5 mM glucose + 10% dialyzed FBS, 0.19 µM	92.6	97.7	108
RPMI 5 mM glucose + 10% dialyzed FBS, 0.569 µM	93.7	91.1	109
RPMI 5 mM glucose + 10% dialyzed FBS, 1.71 µM	86.4	84.3	105
RPMI 5 mM glucose + 10% dialyzed FBS, 5.12 µM	85.3	84.7	93.1
RPMI 5 mM glucose + 10% dialyzed FBS, 15.4 µM	89.3	82.4	105
RPMI 5 mM glucose + 10% dialyzed FBS, 46.1 µM	47.1	46.1	65

Cc1cn([C@H]2C=C[C@@H](CO)O2)c(=O)[nH]c1=O
AUC of viability dose-response curve
Details	NOMO1 [3]	P12-Ichikawa [2]	SEM cells [1]
HPLM + 10% dialyzed FBS	474	468	465
RPMI 5 mM glucose + 10% FBS	435	475	450
RPMI 5 mM glucose + 10% dialyzed FBS	453	474	469

cell viability [%]
Details	NOMO1 [6]	P12-Ichikawa [5]	SEM cells [4]
HPLM + 10% dialyzed FBS, 0.000781 µM	105	104	88.9
HPLM + 10% dialyzed FBS, 0.00234 µM	101	114	106
HPLM + 10% dialyzed FBS, 0.00702 µM	116	108	104
HPLM + 10% dialyzed FBS, 0.0211 µM	123	108	124
HPLM + 10% dialyzed FBS, 0.0632 µM	101	112	114
HPLM + 10% dialyzed FBS, 0.19 µM	114	103	99.6
HPLM + 10% dialyzed FBS, 0.569 µM	125	119	109
HPLM + 10% dialyzed FBS, 1.71 µM	115	103	130
HPLM + 10% dialyzed FBS, 5.12 µM	96.4	115	127
HPLM + 10% dialyzed FBS, 15.4 µM	108	116	112
HPLM + 10% dialyzed FBS, 46.1 µM	107	108	103
RPMI 5 mM glucose + 10% FBS, 0.000781 µM	88.6	100	89.5
RPMI 5 mM glucose + 10% FBS, 0.00234 µM	94.3	111	110
RPMI 5 mM glucose + 10% FBS, 0.00702 µM	100	107	109
RPMI 5 mM glucose + 10% FBS, 0.0211 µM	106	108	108
RPMI 5 mM glucose + 10% FBS, 0.0632 µM	98.7	105	110
RPMI 5 mM glucose + 10% FBS, 0.19 µM	111	104	107
RPMI 5 mM glucose + 10% FBS, 0.569 µM	111	112	117
RPMI 5 mM glucose + 10% FBS, 1.71 µM	102	115	110
RPMI 5 mM glucose + 10% FBS, 5.12 µM	116	108	104
RPMI 5 mM glucose + 10% FBS, 15.4 µM	120	110	126
RPMI 5 mM glucose + 10% FBS, 46.1 µM	115	98	106
RPMI 5 mM glucose + 10% dialyzed FBS, 0.000781 µM	106	99.4	91.2
RPMI 5 mM glucose + 10% dialyzed FBS, 0.00234 µM	124	101	93.9
RPMI 5 mM glucose + 10% dialyzed FBS, 0.00702 µM	118	110	104
RPMI 5 mM glucose + 10% dialyzed FBS, 0.0211 µM	112	105	112
RPMI 5 mM glucose + 10% dialyzed FBS, 0.0632 µM	125	103	118
RPMI 5 mM glucose + 10% dialyzed FBS, 0.19 µM	123	101	96.4
RPMI 5 mM glucose + 10% dialyzed FBS, 0.569 µM	122	112	107
RPMI 5 mM glucose + 10% dialyzed FBS, 1.71 µM	121	108	125
RPMI 5 mM glucose + 10% dialyzed FBS, 5.12 µM	113	99.2	116
RPMI 5 mM glucose + 10% dialyzed FBS, 15.4 µM	129	107	104
RPMI 5 mM glucose + 10% dialyzed FBS, 46.1 µM	131	92.8	74.2

C[N]1C=C(C2=CC=CC=C12)\C3=C(\C(=O)NC3=O)C4=C[N](C5CCN(CC5)CC6=NC=CC=C6)C7=C4C=CC=C7
AUC of viability dose-response curve
Details	NOMO1 [3]	P12-Ichikawa [2]	SEM cells [1]
HPLM + 10% dialyzed FBS	458	472	461
RPMI 5 mM glucose + 10% FBS	424	475	446
RPMI 5 mM glucose + 10% dialyzed FBS	445	472	454

cell viability [%]
Details	NOMO1 [6]	P12-Ichikawa [5]	SEM cells [4]
HPLM + 10% dialyzed FBS, 0.000781 µM	115	110	98.6
HPLM + 10% dialyzed FBS, 0.00234 µM	115	116	113
HPLM + 10% dialyzed FBS, 0.00702 µM	110	115	102
HPLM + 10% dialyzed FBS, 0.0211 µM	116	119	119
HPLM + 10% dialyzed FBS, 0.0632 µM	133	118	114
HPLM + 10% dialyzed FBS, 0.19 µM	116	123	116
HPLM + 10% dialyzed FBS, 0.569 µM	133	120	125
HPLM + 10% dialyzed FBS, 1.71 µM	131	118	118
HPLM + 10% dialyzed FBS, 5.12 µM	129	118	112
HPLM + 10% dialyzed FBS, 15.4 µM	120	120	71.6
HPLM + 10% dialyzed FBS, 46.1 µM	140	117	109
RPMI 5 mM glucose + 10% FBS, 0.000781 µM	100	118	95.2
RPMI 5 mM glucose + 10% FBS, 0.00234 µM	118	126	108
RPMI 5 mM glucose + 10% FBS, 0.00702 µM	110	119	114
RPMI 5 mM glucose + 10% FBS, 0.0211 µM	107	115	119
RPMI 5 mM glucose + 10% FBS, 0.0632 µM	113	118	112
RPMI 5 mM glucose + 10% FBS, 0.19 µM	110	123	104
RPMI 5 mM glucose + 10% FBS, 0.569 µM	109	127	111
RPMI 5 mM glucose + 10% FBS, 1.71 µM	101	124	93.3
RPMI 5 mM glucose + 10% FBS, 5.12 µM	105	116	102
RPMI 5 mM glucose + 10% FBS, 15.4 µM	129	116	66.4
RPMI 5 mM glucose + 10% FBS, 46.1 µM	120	125	87.5
RPMI 5 mM glucose + 10% dialyzed FBS, 0.000781 µM	102	–	98.6
RPMI 5 mM glucose + 10% dialyzed FBS, 0.00234 µM	113	–	124
RPMI 5 mM glucose + 10% dialyzed FBS, 0.00702 µM	110	–	109
RPMI 5 mM glucose + 10% dialyzed FBS, 0.0211 µM	113	–	118
RPMI 5 mM glucose + 10% dialyzed FBS, 0.0632 µM	119	–	118
RPMI 5 mM glucose + 10% dialyzed FBS, 0.19 µM	116	–	127
RPMI 5 mM glucose + 10% dialyzed FBS, 0.569 µM	118	–	119
RPMI 5 mM glucose + 10% dialyzed FBS, 1.71 µM	116	–	111
RPMI 5 mM glucose + 10% dialyzed FBS, 5.12 µM	134	–	101
RPMI 5 mM glucose + 10% dialyzed FBS, 15.4 µM	138	–	69.2
RPMI 5 mM glucose + 10% dialyzed FBS, 46.1 µM	113	–	117
